# Laboratory results as given in patent publication US12077503B2, “Substituted cyclic amides and their use as herbicides” (FMC CORPORATION, priority 2015, dated 2024).
# How the values were obtained:
# Assay type in all cases: in vivo
# [1] = test system: giant foxtail (Setaria faberii); assay: Test A preemergence; conditions: Setaria faberi, pre-emergence, 240 h, preemergence, 0 to 100 scale where 0 is no effect and 100 is complete control, read-out: Foxtail, Giant plant response rating
# Summary of the method: (§1)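 Preemergence directed soil spray on seeded pots, or postemergence application to plants 2–10 cm, one- to two-leaf. Solvent mixture non-phytotoxic, with surfactant. Scored ~10 d later, visually, 0–100 vs untreated.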
# Kochia (Kochia scoparia) [2] = assay: Test A preemergence; conditions: Bassia scoparia, pre-emergence, 240 h, preemergence, 0 to 100 scale where 0 is no effect and 100 is complete control, read-out: Kochia plant response rating
# Summary of the method: as §1
# [3] = test system: ryegrass, Italian (Italian ryegrass, Lolium multiflorum); assay: Test A preemergence; conditions: Lolium multiflorum, pre-emergence, 240 h, preemergence, 0 to 100 scale where 0 is no effect and 100 is complete control, read-out: Ryegrass, Italian plant response rating
# Summary of the method: as §1
# [4] = test system: barnyardgrass (Echinochloa crus-galli); assay: Test A preemergence; conditions: Echinochloa crus-galli, pre-emergence, 240 h, preemergence, 0 to 100 scale where 0 is no effect and 100 is complete control, read-out: Barnyardgrass plant response rating
# Summary of the method: as §1
# [5] = test system: ragweed (common ragweed, Ambrosia elatior); assay: Test A preemergence; conditions: Ambrosia artemisiifolia, pre-emergence, 240 h, preemergence, 0 to 100 scale where 0 is no effect and 100 is complete control, read-out: Ragweed plant response rating
# Summary of the method: as §1
# [6] = test system: pigweed (Amaranthus retroflexus); assay: Test A preemergence; conditions: Amaranthus retroflexus, pre-emergence, 240 h, preemergence, 0 to 100 scale where 0 is no effect and 100 is complete control, read-out: Pigweed plant response rating
# [7] = test system: giant foxtail (Setaria faberii); assay: Test A postemergence; conditions: Setaria faberi, post-emergence, 240 h, Postemergence
# Summary of the method: as §1
# [8] = test system: Galium (catchweed bedstraw, Galium aparine); assay: Test A postemergence; conditions: Galium, post-emergence, 240 h, Postemergence
# Summary of the method: as §1
# Kochia (Kochia scoparia) [9] = assay: Test A postemergence; conditions: Bassia scoparia, post-emergence, 240 h, Postemergence
# Summary of the method: as §1
# [10] = test system: ryegrass, Italian (Italian ryegrass, Lolium multiflorum); assay: Test A postemergence; conditions: Lolium multiflorum, post-emergence, 240 h, Postemergence
# Summary of the method: as §1
# [11] = test system: blackgrass (Alopecurus myosuroides); assay: Test A postemergence; conditions: Alopecurus myosuroides, post-emergence, 240 h, Postemergence
# Summary of the method: as §1
# corn (Zea mays) = assay: Test A postemergence; conditions: Zea mays, post-emergence, 240 h, Postemergence
# Summary of the method: as §1
# [12] = test system: barnyardgrass (Echinochloa crus-galli); assay: Test A postemergence; conditions: Echinochloa crus-galli, post-emergence, 240 h, Postemergence
# Summary of the method: as §1
# [13] = test system: wheat (Triticum aestivum); assay: Test A postemergence; conditions: Triticum aestivum, post-emergence, 240 h, Postemergence
# Summary of the method: as §1
# [14] = test system: ragweed (common ragweed, Ambrosia elatior); assay: Test A postemergence; conditions: Ambrosia artemisiifolia, post-emergence, 240 h, Postemergence
# Summary of the method: as §1
# [15] = test system: pigweed (Amaranthus retroflexus); assay: Test A postemergence; conditions: Amaranthus retroflexus, post-emergence, 240 h, Postemergence
# Summary of the method: as §1
# [16] = 125 g ai/ha, visual injury rating, approximately 10 d
smiles,measurement,setting,value
CSc1ccccc1NC(=O)[C@H]1C(=O)NC[C@@H]1c1cc(C)cc(F)c1 [Compound 1306],pest or weed control at 125 g/ha,[1]; [16],30%
same,pest or weed control at 500 g/ha,[1]; 500 g ai/ha,90%
same,pest or weed control at 125 g/ha,Kochia (Kochia scoparia) [2]; [16],0%
same,pest or weed control at 500 g/ha,Kochia (Kochia scoparia) [2]; 500 g ai/ha,70%
same,pest or weed control at 125 g/ha,[3]; [16],0%
same,pest or weed control at 500 g/ha,[3]; 500 g ai/ha,0%
same,pest or weed control at 125 g/ha,[4]; [16],60%
same,pest or weed control at 500 g/ha,[4]; 500 g ai/ha,90%
same,pest or weed control at 125 g/ha,[5]; [16],40%
same,pest or weed control at 500 g/ha,[5]; 500 g ai/ha,60%
same,pest or weed control at 125 g/ha,[6]; [16],0%
same,pest or weed control at 500 g/ha,[6]; 500 g ai/ha,0%
same,pest or weed control at 125 g/ha,"[7]; 125 g ai/ha, visual rating about 10 d after treatment, read-out: Foxtail, Giant plant response rating (0 to 100 scale)",0%
same,pest or weed control at 500 g/ha,"[7]; 500 g ai/ha, visual injury, 0 to 100 scale (0 no effect, 100 complete control), approx. 10 d, read-out: Plant response rating, Foxtail, Giant",20%
same,pest or weed control at 125 g/ha,"[8]; 125 g ai/ha, visual rating about 10 d after treatment, read-out: Galium plant response rating (0 to 100 scale)",20%
same,pest or weed control at 500 g/ha,"[8]; 500 g ai/ha, visual injury, 0 to 100 scale (0 no effect, 100 complete control), approx. 10 d, read-out: Plant response rating, Galium",40%
same,pest or weed control at 125 g/ha,"Kochia (Kochia scoparia) [9]; 125 g ai/ha, visual rating about 10 d after treatment, read-out: Kochia plant response rating (0 to 100 scale)",0%
same,pest or weed control at 500 g/ha,"Kochia (Kochia scoparia) [9]; 500 g ai/ha, visual injury, 0 to 100 scale (0 no effect, 100 complete control), approx. 10 d, read-out: Plant response rating, Kochia",60%
same,pest or weed control at 125 g/ha,"[10]; 125 g ai/ha, visual rating about 10 d after treatment, read-out: Ryegrass, Italian plant response rating (0 to 100 scale)",0%
same,pest or weed control at 500 g/ha,"[10]; 500 g ai/ha, visual injury, 0 to 100 scale (0 no effect, 100 complete control), approx. 10 d, read-out: Plant response rating, Ryegrass, Italian",0%
same,pest or weed control at 125 g/ha,"[11]; 125 g ai/ha, visual rating about 10 d after treatment, read-out: Blackgrass plant response rating (0 to 100 scale)",0%
same,pest or weed control at 500 g/ha,"[11]; 500 g ai/ha, visual injury, 0 to 100 scale (0 no effect, 100 complete control), approx. 10 d, read-out: Plant response rating, Blackgrass",0%
same,plant injury at 125 g/ha,"corn (Zea mays); 125 g ai/ha, visual rating about 10 d after treatment, read-out: Corn plant response rating (0 to 100 scale)",0%
same,"Corn plant response rating (crop injury, 0 = no effect, 100 = complete kill) at 500 g/ha","corn (Zea mays); 500 g ai/ha, visual injury, 0 to 100 scale (0 no effect, 100 complete control), approx. 10 d",0%
same,pest or weed control at 125 g/ha,"[12]; 125 g ai/ha, visual rating about 10 d after treatment, read-out: Barnyardgrass plant response rating (0 to 100 scale, 0 no effect, 100 complete control)",20%
same,pest or weed control at 500 g/ha,"[12]; 500 g ai/ha, visual injury, 0 to 100 scale (0 no effect, 100 complete control), approx. 10 d, read-out: Plant response rating, Barnyardgrass",90%
same,plant injury at 125 g/ha,"[13]; 125 g ai/ha, visual rating about 10 d after treatment, read-out: Wheat plant response rating (0 to 100 scale)",0%
same,plant injury at 500 g/ha,"[13]; 500 g ai/ha, visual injury, 0 to 100 scale (0 no effect, 100 complete control), approx. 10 d, read-out: Plant response rating, Wheat",0%
same,pest or weed control at 125 g/ha,"[14]; 125 g ai/ha, visual rating about 10 d after treatment, read-out: Ragweed plant response rating (0 to 100 scale)",0%
same,pest or weed control at 500 g/ha,"[14]; 500 g ai/ha, visual injury, 0 to 100 scale (0 no effect, 100 complete control), approx. 10 d, read-out: Plant response rating, Ragweed",0%
same,pest or weed control at 125 g/ha,"[15]; 125 g ai/ha, visual rating about 10 d after treatment, read-out: Pigweed plant response rating (0 to 100 scale)",0%
same,pest or weed control at 500 g/ha,"[15]; 500 g ai/ha, visual injury, 0 to 100 scale (0 no effect, 100 complete control), approx. 10 d, read-out: Plant response rating, Pigweed",0%
